The source of these data is US11229623B2 (GlaxoSmithKline Intellectual Property (No.2) Limited, priority 2016, dated 2022).

T1 sequence (Q9HBA0 whole entry): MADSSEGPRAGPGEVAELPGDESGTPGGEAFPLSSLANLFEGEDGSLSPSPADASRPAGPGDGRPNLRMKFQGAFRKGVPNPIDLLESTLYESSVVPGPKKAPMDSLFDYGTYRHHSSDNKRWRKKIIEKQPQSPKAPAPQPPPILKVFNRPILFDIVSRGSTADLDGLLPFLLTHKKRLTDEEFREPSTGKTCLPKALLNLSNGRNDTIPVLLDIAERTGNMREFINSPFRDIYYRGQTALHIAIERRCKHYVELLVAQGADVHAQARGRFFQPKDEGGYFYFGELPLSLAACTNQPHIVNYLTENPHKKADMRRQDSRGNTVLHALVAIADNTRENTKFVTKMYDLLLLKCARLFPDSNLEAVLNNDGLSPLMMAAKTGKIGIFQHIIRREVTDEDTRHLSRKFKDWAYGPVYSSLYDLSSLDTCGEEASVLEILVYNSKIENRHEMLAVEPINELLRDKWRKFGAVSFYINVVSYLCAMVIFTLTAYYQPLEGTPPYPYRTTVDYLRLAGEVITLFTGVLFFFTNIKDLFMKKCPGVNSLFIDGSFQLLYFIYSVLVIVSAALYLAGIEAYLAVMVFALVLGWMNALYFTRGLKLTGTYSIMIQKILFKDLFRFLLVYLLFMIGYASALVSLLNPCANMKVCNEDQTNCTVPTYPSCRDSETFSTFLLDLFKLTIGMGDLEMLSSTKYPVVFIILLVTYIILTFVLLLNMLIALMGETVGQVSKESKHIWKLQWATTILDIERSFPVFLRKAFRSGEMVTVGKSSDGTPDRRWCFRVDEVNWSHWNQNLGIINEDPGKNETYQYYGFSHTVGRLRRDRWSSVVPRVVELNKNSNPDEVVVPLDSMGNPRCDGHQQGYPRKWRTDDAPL

The assay concerns the target T1, human TRPV4 (Homo sapiens, UniProt Q9HBA0).
T1 construct: expressed in transfected cells; host or cells: BHK/AC9 cells transduced with BacMam virus
As to the kind of experiment: FLIPR assay for hTRPV4 expressed in BHK cells: inhibition of Agonist Compound-induced calcium signal. The format is cell-based. Particulars: hTRPV4 in BHK/AC9 cells, FLIPR calcium signal, agonist at EC80; reported as range class; read-out: IC50. The protocol:
FLIPR Assay for hTRPV4 Expressed in BHK Cells:
TRPV4 channel activation results in an influx of divalent and monovalent cations including calcium. The resulting changes in intracellular calcium were monitored using a calcium specific fluorescent dye Fluo-4 (MDS Analytical Technologies). BHK/AC9 cells transduced with BacMam virus expressing the human TRPV4 gene at a MOI of 78 were plated in a 384 well poly-D lysine coated plate (15,000 cells/well in 50 μL culture medium containing DMEM/F12 with 15 mM HEPES, 10% FBS, 1% Penicillin-Streptomycin and 1% L-glutamine). Cells were incubated for 24 hours at 37° C. and 5% CO2. Culture medium was then aspirated using a Tecan plate-washer and replaced with 20 μL/well of dye loading buffer: HBSS, 500 μM Brilliant Black (MDS Analytical Technologies), and 2 μM Fluo-4 AM. Dye loaded plates were then incubated in the dark at room temperature for 1-1.5 hours.
Take `N#Cc1cc(C(F)(F)F)ccc1S(=O)(=O)N1C[C@H](Oc2ccc(F)c(F)c2F)[C@](O)(CO)C1` [Example 28, 2-(((3R,4S)-3-hydroxy-3-(hydroxymethyl)-4-(2,3,4-trifluorophenoxy)pyrrolidin-1-yl)sulfonyl)-5-(trifluoromethyl)benzonitrile]: the IC50 was 10 to 100 nM.
Then `N#Cc1ccc(O[C@H]2CN(S(=O)(=O)c3ccc(C(F)(F)F)cc3C#N)C[C@@]2(O)CO)cc1` [Example 29, 2-(((3R,4S)-4-(4-cyanophenoxy)-3-hydroxy-3-(hydroxymethyl)pyrrolidin-1-yl)sulfonyl)-5-(trifluoromethyl)benzonitrile], with 0.1 to 10 nM; and `N#Cc1cc(C(F)(F)F)ccc1S(=O)(=O)N1C[C@H](Oc2ccc(Cl)c(F)c2)[C@](O)(CO)C1` [Example 30, 2-(((3R,4S)-4-(4-chloro-3-fluorophenoxy)-3-hydroxy-3-(hydroxymethyl)pyrrolidin-1-yl)sulfonyl)-5-(trifluoromethyl)benzonitrile], with 0.1 to 10 nM; and `N#Cc1cc(C(F)(F)F)ccc1S(=O)(=O)N1C[C@H](Oc2ccc(C(F)(F)F)c(F)c2)[C@](O)(CO)C1` [Example 31, 2-(((3R,4S)-4-(3-fluoro-4-(trifluoromethyl)phenoxy)-3-hydroxy-3-(hydroxymethyl)pyrrolidin-1-yl)sulfonyl)-5-(trifluoromethyl)benzonitrile], with 0.1 to 10 nM.
Consider `N#CCc1ccc(O[C@H]2CN(S(=O)(=O)c3ccc(C(F)(F)F)cc3C#N)C[C@@]2(O)CO)cc1` [Example 32, 2-(((3R,4S)-4-(4-(cyanomethyl)phenoxy)-3-hydroxy-3-(hydroxymethyl)pyrrolidin-1-yl)sulfonyl)-5-(trifluoromethyl)benzonitrile], for which the half-maximal inhibitory concentration (IC50) is 10 to 100 nM.
For the compound `N#CCc1cccc(O[C@H]2CN(S(=O)(=O)c3ccc(C(F)(F)F)cc3C#N)C[C@@]2(O)CO)c1` [Example 33, 2-(((3R,4S)-4-(3-(cyanomethyl)phenoxy)-3-hydroxy-3-(hydroxymethyl)pyrrolidin-1-yl)sulfonyl)-5-(trifluoromethyl)benzonitrile], the half-maximal inhibitory concentration (IC50) was in the range of 10 to 100 nM.
In the case of `COC(=O)c1cc(C#N)ccc1O[C@H]1CN(S(=O)(=O)c2ccc(C(F)(F)F)cc2C#N)C[C@@]1(O)CO` [Example 34, methyl 5-cyano-2-(((3S,4R)-1-((2-cyano-4-(trifluoromethyl)phenyl)sulfonyl)-4-hydroxy-4-(hydroxymethyl)pyrrolidin-3-yl)oxy)benzoate], the IC50 lay in the range of 0.1 to 10 nM.
On to `O=S(=O)(c1ccc(Cl)cc1Cl)N1C[C@H](Oc2ccc(C(F)(F)F)nc2)[C@](O)(CO)C1` [Example 35, (3R,4S)-1-((2,4-dichlorophenyl)sulfonyl)-3-(hydroxymethyl)-4-((6-(trifluoromethyl)pyridin-3-yl)oxy)pyrrolidin-3-ol], for which the IC50 lay in the range of 10 to 100 nM.
The value for `N#Cc1ncc(O[C@H]2CN(S(=O)(=O)c3ccc(Cl)cc3Cl)C[C@@]2(O)CO)cc1F` [Example 36, 5-(((3S,4R)-1-((2,4-dichlorophenyl)sulfonyl)-4-hydroxy-4-(hydroxymethyl)pyrrolidin-3-yl)oxy)-3-fluoropicolinonitrile] was 0.1 to 10 nM.
The value for `N#Cc1cc(C(F)(F)F)ccc1S(=O)(=O)N1C[C@H](Oc2ccc(C(F)(F)F)cc2)[C@](O)(CO)C1` [Example 37, 2-(((3R,4S)-3-hydroxy-3-(hydroxymethyl)-4-(4-(trifluoromethyl)phenoxy)pyrrolidin-1-yl)sulfonyl)-5-(trifluoromethyl)benzonitrile] was 0.1 to 10 nM; that for `N#Cc1cc(C(F)(F)F)ccc1S(=O)(=O)N1C[C@H](Oc2ccc(F)c(C(F)(F)F)c2)[C@](O)(CO)C1` [Example 38, 2-(((3R,4S)-4-(4-fluoro-3-(trifluoromethyl)phenoxy)-3-hydroxy-3-(hydroxymethyl)pyrrolidin-1-yl)sulfonyl)-5-(trifluoromethyl)benzonitrile] was 10 to 100 nM.
